# Reference: publication PMC12128024, “Copper(II) Cyclopeptides with High ROS-Mediated Cytotoxicity” (Bioconjugate Chemistry, 2025)
# *1 amine or outer side, *2 acyl side, *3 side chain or, on linkers, in order; H or OH if unused. Where a SMILES comes first, the peptide text is derived from it. [ ]: non-standard residue; d: D form. X1 = O=C(c1ccc(-c2ccc(N[*:1])cn2)nc1)[*:2]; βAla = NCCC(=O)O
# What was measured:
# [1] = tested on: NCI/ADR-RES cells; experiment: ICP-MS internalization study (intracellular Cu accumulation); format: cell-based; conditions: 1 µM compound, 48 h, metallopeptides 1 eq. cyclopeptide + 1 eq. Cu(II)
# Protocol: To evaluate the ability of the Cu(II) metallopeptide systems to internalize in cancer cells, ICP-MS studies were performed in NCI/ADR-RES cells after 48 h of incubation with cyclopeptides 1 and 2, as well as their corresponding 1/Cu(II) and 2/Cu(II) metallopeptide derivatives formed by mixing each cyclopeptide with 1 equiv Cu(II), and using CuCl2·2H2O both as a Cu(II) source and a control.
# 7.1. General methods and materials
# ICP Measurements were conducted employing an Agilent 7900 ICP-MS system (Agilent Technologies, Tokyo, Japan). The sample introduction system was comprised of an autosampler, a double-pass spray chamber with Peltier system, a glass concentric nebulizer (MicroMist low-flow nebulizer, Glass Expansion, West Melbourne, Australia), and a quartz torch.
# Quantification of copper concentrations was achieved using Agilent ICP-MS MassHunter 5.1, (Version D.01.01 Agilent Technologies, Tokyo, Japan). The parameters for the ICP-MS device were as follows: RF Power, 1550 W; Sample Depth, 8; Carrier Gas, 1.1 L/min; Nebulizer Pump […]
# Roswell Park Memorial Institute 1640 medium (RPMI), fetal bovine serum (FBS), penicillin, and streptomycin were purchased from Invitrogen Thermo Fisher.
# Ovarian tumour NCI/ADR-RES cells, obtained from the European Collection of Authenticated Cell Cultures (ECACC), were cultured at 37 °C in a 5% CO2 atmosphere in RPMI medium containing 10% FBS and supplemented with 50 U/mL penicillin and 50 U/mL streptomycin, in 75 cm2 cell culture flasks. All cell experiments were performed at 37 °C in a 5% CO 2 atmosphere with this modified RPMI, referred as “medium” or “culture medium”.
# 7.3. […]
# The culture medium was then replaced with 3 mL of fresh medium containing 1 µM of the compound [Cu(II) (CuCl₂·2H₂O), cyclopeptide ( 1 or 2), or metallopeptide system [1/Cu(II) or 2/Cu(II); 1 eq. cyclopeptide + 1 eq. […] Lysates were digested at 95 °C overnight, diluted with 1% HNO₃ to a final volume of 5 mL, and analyzed by ICP-MS. The Cu(II) content in the culture medium (3 mL) was also measured using the same technique, yielding a value of 41.46 ng. […]
# [2] = tested on: NCI/ADR-RES cells; experiment: Intracellular ROS generation (ROS Assay Stain 1X); format: cell-based; conditions: 100 μM compound with 125 μM H2O2, 1-5 h and 24 h, 1/Cu(II) equimolar
# Protocol: Measurement of intracellular ROS levels in NCI/ADR-RES cells treated with Cu(II) ions, cyclopeptide 1, or the 1/Cu(II) metallopeptide system confirmed a time-dependent increase in the level of ROS generation. In short, after 24 h of incubation, cells were stained with ROS Assay Stain 1× and treated with 100 μM Cu(II) (CuCl2·2H2O), cyclopeptide 1, or 1/Cu(II), along with 125 μM H2O2, and fluorescence was recorded (λex = 495/λem = 520 nm) every hour for the first 5 h and again at 24 h. The experiment with the metallopeptide system was conducted by using equimolar amounts of cyclopeptide 1 and Cu(II) to prevent an excess of free copper in the medium. […] The cytotoxicity of the metallopeptide systems appears to be closely linked to their ability to enhance intracellular oxidative stress via increased ROS production, likely driven by Cu(II) accumulation within the cells.
# 9.2. […]
# NCI/ADR-RES cells were seeded in a 96 well plate (Thermo Scientific 165305) at a density of 2,5 x 10^5 cells/ml. […] The fluorescence was measured in a microplate reader every hour for the first 5 hours, and again at 24 hours after the addition of the compounds (λex= 495 nm / λem= 520 nm). […]
# Figure S15. […] Fluorescence (λex= 495 nm / λem= 520 nm) was recorded every hour for the first 5 hours, and again at 24 hours after the addition of the compounds to assess intracellular ROS generation. […]
smiles,measurement,setting,value
"N=C(N)NCCC[C@@H]1NC(=O)c2ccc(nc2)-c2ccc(cn2)NC(=O)CCNC(=O)[C@H](CCCNC(=N)N)NC(=O)[C@H](CCCNC(=N)N)NC(=O)[C@H](CCCNC(=N)N)NC(=O)c2ccc(nc2)-c2ccc(cn2)NC(=O)CCNC(=O)[C@H](CCCNC(=N)N)NC(=O)[C@H](CCCNC(=N)N)NC1=O [compound 1, cyclo-(βAlaBpy-Arg3)2] (cyclo([X1]RRR[βAla][X1]RRR[βAla]))",intracellular Cu(II) accumulation (ICP-MS),[1],notably lower than that of the metallopeptide systems
same,intracellular ROS levels (fluorescence),[2],"also promotes ROS generation, albeit to a lesser extent"
